Test results: ChEMBL document CHEMBL4393651, “Class 1 PI3K Clinical Candidates and Recent Inhibitor Design Strategies: A Medicinal Chemistry Perspective” (J Med Chem, 2019)
Values after ≈ are worked out from the molar mass of the structure shown.

Key:
[1] = target: T1, Phosphatidylinositol 4,5-bisphosphate 3-kinase catalytic subunit beta isoform (Homo sapiens, UniProt P42338); test: Inhibition of N-terminal His-tagged truncated human PI3Kbeta (deltaN 1 to 108 residues) after 2 hrs in presence of [33P]ATP by BetaPlate liquid scintillation counting analysis
[2] = target: Phosphatidylinositol 4,5-bisphosphate 3-kinase catalytic subunit alpha isoform (Homo sapiens, UniProt P42336); test: Inhibition of PI3Kalpha (unknown origin)
[3] = Inhibition of PI3K in human PBMC assessed as reduction in IFNgamma secretion
[4] = Inhibition of PI3K in human lung parenchyma cells assessed as reduction in IFNgamma secretion
[5] = target: Phosphatidylinositol 4,5-bisphosphate 3-kinase catalytic subunit gamma isoform (Homo sapiens, UniProt P48736); test: Inhibition of PI3Kgamma (unknown origin)
Rattus norvegicus = organism: Rattus norvegicus; test: Antiinflammatory activity in Brown Norway rat acute OVA model of Th2 driven lung inflammation assessed as protection against eosinophil recruitment; format: functional
[6] = Inhibition of PI3K in human lung parenchyma cells assessed as reduction in IL2 secretion
[7] = target: T1, Phosphatidylinositol 4,5-bisphosphate 3-kinase catalytic subunit beta isoform; test: Inhibition of PI3Kbeta (unknown origin)
[8] = target: T2, Phosphatidylinositol 4,5-bisphosphate 3-kinase catalytic subunit delta isoform (Homo sapiens, UniProt O00329); test: Inhibition of PI3Kdelta (unknown origin)
T2 sequence (O00329 whole entry): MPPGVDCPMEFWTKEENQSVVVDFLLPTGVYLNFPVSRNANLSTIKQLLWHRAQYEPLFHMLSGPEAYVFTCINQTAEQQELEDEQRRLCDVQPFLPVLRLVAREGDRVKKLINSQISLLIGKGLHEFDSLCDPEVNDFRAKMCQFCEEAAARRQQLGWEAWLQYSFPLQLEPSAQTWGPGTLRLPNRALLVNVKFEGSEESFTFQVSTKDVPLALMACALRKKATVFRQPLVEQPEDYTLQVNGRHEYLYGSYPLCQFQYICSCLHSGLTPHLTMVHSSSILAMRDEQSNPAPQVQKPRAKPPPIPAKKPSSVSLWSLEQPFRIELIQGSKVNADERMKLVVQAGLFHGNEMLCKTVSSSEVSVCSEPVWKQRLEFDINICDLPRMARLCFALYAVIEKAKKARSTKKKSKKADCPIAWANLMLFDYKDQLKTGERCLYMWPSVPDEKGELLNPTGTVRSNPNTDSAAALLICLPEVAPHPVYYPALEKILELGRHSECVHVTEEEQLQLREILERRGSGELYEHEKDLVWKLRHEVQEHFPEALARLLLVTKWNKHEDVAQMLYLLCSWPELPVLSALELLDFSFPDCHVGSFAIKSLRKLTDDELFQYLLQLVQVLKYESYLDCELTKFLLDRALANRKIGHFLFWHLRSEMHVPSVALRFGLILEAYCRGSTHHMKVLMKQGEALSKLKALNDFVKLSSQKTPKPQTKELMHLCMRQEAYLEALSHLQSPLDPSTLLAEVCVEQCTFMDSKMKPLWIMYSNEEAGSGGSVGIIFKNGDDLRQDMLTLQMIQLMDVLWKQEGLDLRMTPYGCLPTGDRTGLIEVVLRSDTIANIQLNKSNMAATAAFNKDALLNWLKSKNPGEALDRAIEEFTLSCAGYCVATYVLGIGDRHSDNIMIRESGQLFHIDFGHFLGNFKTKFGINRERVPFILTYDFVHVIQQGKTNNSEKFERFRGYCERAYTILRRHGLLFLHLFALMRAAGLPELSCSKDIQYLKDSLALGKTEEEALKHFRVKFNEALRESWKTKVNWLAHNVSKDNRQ

[9] = Oral bioavailability in rat; format: ADME, organism-based; conditions: in vivo
[10] = Aqueous solubility of the compound at pH 7.4; format: physicochemical

T1 sequence (P42338 whole entry, the tested form may be a part, canonical isoform): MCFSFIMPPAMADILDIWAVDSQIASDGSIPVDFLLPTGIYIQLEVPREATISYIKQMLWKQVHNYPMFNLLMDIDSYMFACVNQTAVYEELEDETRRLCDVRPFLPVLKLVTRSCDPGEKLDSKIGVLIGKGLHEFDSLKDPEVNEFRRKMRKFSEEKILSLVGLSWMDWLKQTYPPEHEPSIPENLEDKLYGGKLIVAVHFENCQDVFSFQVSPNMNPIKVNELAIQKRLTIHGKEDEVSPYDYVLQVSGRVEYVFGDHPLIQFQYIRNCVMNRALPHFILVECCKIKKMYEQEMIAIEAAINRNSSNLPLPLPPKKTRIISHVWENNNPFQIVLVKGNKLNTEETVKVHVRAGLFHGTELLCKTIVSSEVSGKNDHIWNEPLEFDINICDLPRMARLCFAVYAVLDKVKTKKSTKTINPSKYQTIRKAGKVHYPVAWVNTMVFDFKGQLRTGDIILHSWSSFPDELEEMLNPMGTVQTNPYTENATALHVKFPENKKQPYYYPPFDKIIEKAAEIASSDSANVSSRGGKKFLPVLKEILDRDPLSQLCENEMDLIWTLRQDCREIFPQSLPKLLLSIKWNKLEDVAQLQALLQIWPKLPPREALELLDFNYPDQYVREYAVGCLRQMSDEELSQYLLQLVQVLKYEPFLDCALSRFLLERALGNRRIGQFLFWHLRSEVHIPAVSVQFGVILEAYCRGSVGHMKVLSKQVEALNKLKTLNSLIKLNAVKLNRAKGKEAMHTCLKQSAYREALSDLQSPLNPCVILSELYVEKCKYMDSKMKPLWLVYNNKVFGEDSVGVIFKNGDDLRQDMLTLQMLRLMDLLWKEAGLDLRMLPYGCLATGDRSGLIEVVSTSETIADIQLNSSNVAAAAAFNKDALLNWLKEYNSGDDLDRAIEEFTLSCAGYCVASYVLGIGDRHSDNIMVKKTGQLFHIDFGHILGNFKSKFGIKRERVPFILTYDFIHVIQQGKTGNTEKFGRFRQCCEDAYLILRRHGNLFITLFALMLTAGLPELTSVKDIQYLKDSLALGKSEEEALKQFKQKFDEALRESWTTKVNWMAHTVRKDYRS
Chain of Phosphatidylinositol 4,5-bisphosphate 3-kinase catalytic subunit gamma isoform (P48736 whole entry, canonical isoform): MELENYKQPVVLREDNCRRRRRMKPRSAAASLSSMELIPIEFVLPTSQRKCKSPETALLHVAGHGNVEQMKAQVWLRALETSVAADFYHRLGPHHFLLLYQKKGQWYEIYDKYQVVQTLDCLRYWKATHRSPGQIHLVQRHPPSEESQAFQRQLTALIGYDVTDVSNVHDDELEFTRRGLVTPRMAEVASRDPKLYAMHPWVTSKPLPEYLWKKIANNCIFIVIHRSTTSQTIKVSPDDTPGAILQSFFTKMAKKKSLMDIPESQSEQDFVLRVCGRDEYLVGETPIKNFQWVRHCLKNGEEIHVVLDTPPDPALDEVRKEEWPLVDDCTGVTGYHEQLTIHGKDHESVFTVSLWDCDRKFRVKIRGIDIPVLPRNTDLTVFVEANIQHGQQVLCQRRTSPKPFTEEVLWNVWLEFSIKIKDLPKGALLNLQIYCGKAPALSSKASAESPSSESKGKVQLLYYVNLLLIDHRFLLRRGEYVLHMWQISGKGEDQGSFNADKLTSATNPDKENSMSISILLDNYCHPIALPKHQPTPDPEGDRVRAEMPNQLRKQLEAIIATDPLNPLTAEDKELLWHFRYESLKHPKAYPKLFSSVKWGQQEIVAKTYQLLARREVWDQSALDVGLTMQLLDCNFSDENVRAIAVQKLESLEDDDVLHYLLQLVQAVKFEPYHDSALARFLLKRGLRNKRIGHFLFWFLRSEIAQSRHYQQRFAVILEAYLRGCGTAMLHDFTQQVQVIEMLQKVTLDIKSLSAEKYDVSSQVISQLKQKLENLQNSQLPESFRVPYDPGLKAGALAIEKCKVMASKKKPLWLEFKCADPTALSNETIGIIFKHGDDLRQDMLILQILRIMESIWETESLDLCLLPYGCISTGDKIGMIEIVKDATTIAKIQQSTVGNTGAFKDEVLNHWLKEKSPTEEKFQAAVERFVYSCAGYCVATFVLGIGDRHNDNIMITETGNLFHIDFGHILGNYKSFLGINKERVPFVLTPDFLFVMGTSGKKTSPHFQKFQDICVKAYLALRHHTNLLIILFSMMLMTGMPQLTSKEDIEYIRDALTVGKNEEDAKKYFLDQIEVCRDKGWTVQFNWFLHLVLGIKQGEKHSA
Chain of Phosphatidylinositol 4,5-bisphosphate 3-kinase catalytic subunit alpha isoform (P42336 whole entry, canonical isoform): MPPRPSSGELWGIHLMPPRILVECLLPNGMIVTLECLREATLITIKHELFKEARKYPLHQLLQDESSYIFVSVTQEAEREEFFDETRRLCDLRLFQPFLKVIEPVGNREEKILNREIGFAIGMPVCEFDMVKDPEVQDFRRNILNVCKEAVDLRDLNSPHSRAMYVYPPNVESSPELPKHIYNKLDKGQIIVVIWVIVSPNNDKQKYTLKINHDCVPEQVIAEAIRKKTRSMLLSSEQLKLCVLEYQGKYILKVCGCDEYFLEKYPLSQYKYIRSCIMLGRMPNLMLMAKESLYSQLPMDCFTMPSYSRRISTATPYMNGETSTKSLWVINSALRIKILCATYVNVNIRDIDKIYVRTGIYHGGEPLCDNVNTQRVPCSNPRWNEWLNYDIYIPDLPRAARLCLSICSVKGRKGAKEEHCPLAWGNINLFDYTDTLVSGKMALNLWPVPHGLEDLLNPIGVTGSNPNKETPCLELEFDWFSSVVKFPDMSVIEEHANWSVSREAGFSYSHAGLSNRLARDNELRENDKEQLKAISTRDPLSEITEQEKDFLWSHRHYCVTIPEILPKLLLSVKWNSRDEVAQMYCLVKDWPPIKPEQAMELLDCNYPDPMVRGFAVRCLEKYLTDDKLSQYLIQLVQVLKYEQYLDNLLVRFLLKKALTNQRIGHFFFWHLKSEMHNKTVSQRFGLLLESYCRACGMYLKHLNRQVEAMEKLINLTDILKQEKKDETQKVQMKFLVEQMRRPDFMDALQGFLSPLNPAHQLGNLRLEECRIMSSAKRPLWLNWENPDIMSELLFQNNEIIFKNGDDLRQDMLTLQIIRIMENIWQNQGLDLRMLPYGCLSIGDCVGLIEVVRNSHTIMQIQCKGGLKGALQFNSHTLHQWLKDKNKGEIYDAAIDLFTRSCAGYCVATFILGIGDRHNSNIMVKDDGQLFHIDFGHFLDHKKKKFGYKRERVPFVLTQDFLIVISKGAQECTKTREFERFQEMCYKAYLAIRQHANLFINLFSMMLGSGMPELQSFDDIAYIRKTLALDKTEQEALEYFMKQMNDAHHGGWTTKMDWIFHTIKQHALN

With O=C(NC1=Nc2ccccc2C2=NCCN12)c1cccnc1 as the compound, how does the IC50 [1] read?
Its IC50 is 1 nM.

Which results are given for COc1ncc(-c2cc(-c3ncc(CN4C[C@@H](C)O[C@@H](C)C4)o3)c3cn[nH]c3c2)cc1NS(C)(=O)=O?
Ki [2]: 501 nM; pKi [3]: 9.2; IC50 [4]: 2 nM; Ki [5]: 501 nM; ED50 (Rattus norvegicus): 0.035 mg/kg; IC50 [6]: 3.16 nM; Ki [7]: 631 nM

For Cc1nc(C(=O)Nc2cc(-c3cnc(Cl)c(NS(=O)(=O)c4ccccc4)c3)cc3[nH]ncc23)cs1, which IC50 [2] is on record?
Its IC50 is 316 nM.

What about the IC50 [8] of the same compound?
The IC50 was 2 nM.

What about the IC50 [5] of the same compound?
The IC50 was 50.1 nM.

And the IC50 [7]?
The IC50 was 1000 nM.

Which bioavailability [9] does the source give for CC(C)N1CCN(Cc2cnc(-c3cc(-c4cccc5[nH]ccc45)cc4[nH]ncc34)o2)CC1 [NEMIRALISIB] here?
The bioavailability was < 2%.

For Cc1nnc2n1[C@@H]1CCN(Cc3cc4nc(-c5cccc6[nH]ccc56)nc(N5CCOCC5)c4s3)C[C@@H]1CC2, which IC50 [8] is on record?
Its IC50 is 0.794 nM.

What about the solubility [10] of the same compound?
Its solubility is 20 µg/mL (≈ 37 µM).
